# Laboratory results from article PMC8491554 (Journal of agricultural and food chemistry, 2021).
# Key:
# SARS-CoV-2 Mpro [1] = molecular target: T1, SARS-CoV-2 Mpro (Severe acute respiratory syndrome coronavirus 2, UniProt P0DTD1); experiment: biochemical; settings: for inhibition at 2 µM / inhibition at 10 µM / inhibition at 50 µM: read-out: inhibition of SARS-CoV-2 Mpro enzyme activity (inhibition rate)
# SARS-CoV-2 Mpro [2] = molecular target: T1, SARS-CoV-2 Mpro; type: binding; settings: for SPR response units (RUs) in sensorgrams, up to: highest response in SPR sensorgrams; for binding capacity in SPR sensorgrams (in words): Supporting Information
SMILES,inhibition at 2 µM (SARS-CoV-2 Mpro [1]) [%],inhibition at 10 µM (SARS-CoV-2 Mpro [1]) [%],inhibition at 50 µM (SARS-CoV-2 Mpro [1]) [%],"SPR response units (RUs) in sensorgrams, up to (SARS-CoV-2 Mpro [2])",further results
"O=C1O[C@H]2[C@@H]3OC(=O)c4cc(O)c(O)c(O)c4-c4c(O)c(O)c5oc(=O)c6c(c(O)c(O)c7oc(=O)c4c5c76)-c4c(cc(O)c(O)c4O)C(=O)OC[C@H]3OC(O)[C@@H]2OC(=O)c2cc(O)c(O)c(O)c2-c2c1cc(O)c(O)c2O (mixture of isomers) [PA, punicalagin]",2,59,100,,
"O=c1oc2c(O)c(O)cc3c(=O)oc4c(O)c(O)cc1c4c23 [EA, ellagic acid]",3,28,57,,
"O=C(O)c1cc(O)c(O)c(O)c1 [GLA, gallic acid]",,,,up to 30 RU,
"O=C(OC[C@H]1O[C@@H](OC(=O)c2cc(O)c(O)c(O)c2)[C@H](OC(=O)c2cc(O)c(O)c(O)c2)[C@@H](OC(=O)c2cc(O)c(O)c(O)c2)[C@@H]1OC(=O)c1cc(O)c(O)c(O)c1)c1cc(O)c(O)c(O)c1 [PGG, 1,2,3,4,6-penta-O-galloyl-ß-D-glucose]",14,73,100,≤ 1186 RU,
"Oc1cccc(O)c1O [PYG, pyrogallol]",20,,,,reference binding signal (SARS-CoV-2 Mpro [2]; CM5 sensor chip): less than 10%; reference signal (reference binding RUs over binding level RUs) (SARS-CoV-2 Mpro [2]; PEG sensor chip): 64%
"O=C(OC[C@H]1O[C@@H](OC(=O)c2cc(O)c(O)c(OC(=O)c3cc(O)c(O)c(O)c3)c2)[C@H](OC(=O)c2cc(O)c(O)c(OC(=O)c3cc(O)c(O)c(O)c3)c2)[C@@H](OC(=O)c2cc(O)c(O)c(OC(=O)c3cc(O)c(O)c(O)c3)c2)[C@@H]1OC(=O)c1cc(O)c(O)c(OC(=O)c2cc(O)c(O)c(O)c2)c1)c1cc(O)c(O)c(OC(=O)c2cc(O)c(O)c(O)c2)c1 [TA, tannic acid]",,,,up to 643 RU,inhibition of SARS-CoV-2 Mpro enzyme activity (inhibition rate) (SARS-CoV-2 Mpro [1]; 2 μM): 13%; inhibition of SARS-CoV-2 Mpro enzyme activity (inhibition rate) (SARS-CoV-2 Mpro [1]; 10 μM): 73%; inhibition of SARS-CoV-2 Mpro enzyme activity (inhibition rate) (SARS-CoV-2 Mpro [1]; 50 μM): 100%
"O=c1oc2cc(O)ccc2c2ccc(O)cc12 [UA, urolithin A]",,,,,binding capacity in SPR sensorgrams (in words) (SARS-CoV-2 Mpro [2]): undetectable binding capacity
"O=c1oc2cc(O)ccc2c2ccccc12 [UB, urolithin B]",,,,< 10 RU,binding capacity in SPR sensorgrams (in words) (SARS-CoV-2 Mpro [2]): weak binding capacity
"O=c1c(O)c(-c2ccc(O)c(O)c2)oc2cc(O)cc(O)c12 [quercetin, reference compound]",,,,up to 103 RU,
